In patent publication US20200030202A1, “TWO-STEP TREATMENT FOR DESQUAMATION OF SKIN” (L'OREAL, priority 2018, published 2020):

System: isolated human stratum corneum (SC)
Experiment: DSC lipid disorganization (shift of melting transition temperatures) of treated stratum corneum
Conditions: 15 minutes per treatment, 75% RH, RT
Description: Various compositions (alkaline versus acidic) and treatment protocols were tested and compared to determine which compositions and protocols produced the greatest degree of lipid disorganization, which is a common method for estimating the desquamation efficacy. All DSC experiments were performed on isolated human stratum corneum (SC). The SC was prepared using a standard protocol. Human abdominal skin remaining from plastic surgery was obtained in frozen form. Subcutaneous fat was removed and the dermis was separated from epidermis by plunging the skin into hot water (56° C.) for 1-2 min. The remaining viable epidermis was removed by tryptic digestion at 37° C. overnight. The SC was dried and stored at room temperature and ambient humidity. […]
The degree of lipid disorganization following treatment can be conveniently monitored by the shifts of the melting transition temperatures measured by Differential Scanning Calorimetry (DSC). […]
The maxima of the endothermic peaks corresponding to lipid phase transitions are determined using dedicated software (TA Universal Analysis). The peak position and the transition enthalpy are determined with respect to a manually defined linear baseline. […] The shifts of the melting peak positions (ΔTm(T2) and ΔTm(T3)) are calculated with respect to reference thermogrammes obtained with untreated or vehicle-treated samples. […]

For `O=C(O)CO` [70% GA, glycolic acid], which ΔT (Example 3, ΔTeffective=0.7·ΔTm(T2)+0.3ΔTm(T3) vs untreated or vehicle-treated SC, 0.1 gram, decrease of 2° C. considered significant) is on record?
The ΔT was −4.6.

And the ΔT (Example 4, same manner as Example 3, different alkaline agents)?
The ΔT was −7.1.
